Assays:
VEGFR2 = VEGFR2 (Homo sapiens, UniProt P35968); conditions: according to kinetic analysis; background statement; cited from earlier work
[1] = system: mouse colon carcinoma cell line CT26.WT; assay: Anti-tumor effect in subcutaneous CT26.WT transplantation model, lenvatinib mesilate and anti-PD-L1 antibody; assay type: in vivo; conditions: BALB/c mice, lenvatinib mesilate oral once daily, anti-PD-L1 antibody 500 μg/head i.p. every 3 days
Method: A RPMI1640 culture medium containing 10% FBS and penicillin/streptomycin was used to culture a mouse colon carcinoma cell line CT26.WT (ATCC number: CRL-2638). Hank's Balanced Salt Solution (HBSS) was used to prepare a cell suspension having a concentration of 3.0×10^7 cells/mL. The cell suspension was subcutaneously transplanted at a dose of 0.1 mL on the right lateral side of the body of each of 7-week-old mice (BALB/cAnNCrlCrlj, female, Charles River Laboratories Japan Inc.). 8 days after the transplantation, an electronic digital caliper (Digimatic™ Caliper; Mitutoyo Corporation) was used to measure the short and long diameters of a tumor of interest. The following equation was used to calculate the tumor volume TV. Tumor Volume TV (mm^3)=Long Diameter (mm)×Short Diameter (mm)×Short Diameter (mm)/2.
(§1) Based on the tumor volumes on the first day of administration, grouping was carried out such that the average values of the tumor volumes were almost the same. A 1 mg/ml solution of lenvatinib mesilate was prepared using water for injection (Otsuka Pharmaceutical Co., Ltd.) and was orally administered at a dose of 0.2 mL/20 g mouse body weight once daily for 14 days. 0.2 mL of an administration sample containing 2.5 mg/mL of an anti-mouse-PD-L1 antibody, which had been diluted with PBS, was intraperitoneally administered (at a dosage of 500 μg/head) once every 3 days a total of 5 times (day 1, day 4, day 7, day 10, and day 13, with the day of the grouping set to day 1). To the control group, Otsuka water for injection was orally administered at a dose of 0.2 mL/20 g mouse body weight once daily for 14 days. Each group including 5 mice was used to conduct the experiment. The day (day 15) after the final administration, the respective tumor volumes TV were determined for the control group, the lenvatinib administration group, the anti-mouse-PD-L1 antibody administration group, and the combination administration group. The values obtained by logarithmically transforming the tumor volumes were used to carry out statistical analysis.

[2] = system: mouse lung cancer cell line LL/2 (LLc1); assay: Anti-tumor effect in subcutaneous LL/2 (LLc1) transplantation model; assay type: in vivo; conditions: C57BL/6J mice, lenvatinib oral once daily, anti-PD-1 antibody 500 μg/head i.p. every 3 days
Method: A DMEM culture medium (high-glucose type) containing 10% fetal bovine serum (FBS) and penicillin/streptomycin was used to culture a mouse lung cancer cell line LL/2 (LLc1) (ATCC number: CRL-1642). Next, phosphate buffered saline (PBS) was used to prepare a cell suspension having a concentration of 2.0×10^7 cells/mL. The cell suspension was subcutaneously transplanted at a dose of 0.1 mL on the right lateral side of the body of each of 7-week-old mice (C57BL/6J, female, Charles River Laboratories Japan Inc.). Eight (8) days after the transplantation, an electronic digital caliper (Digimatic™ Caliper; Mitutoyo Corporation) was used to measure the short and long diameters of a tumor of interest. The following equation was used to calculate the tumor volume TV. Tumor Volume TV (mm^3)=Long Diameter (mm)×Short Diameter (mm)×Short Diameter (mm)/2.
as §1, with “lenvatinib” for “lenvatinib mesilate”, “anti-mouse-PD-1 antibody (Clone: RMP1-14, BioXCell, Catalog#: BE0146),” for “anti-mouse-PD-L1 antibody,”, “(TV)” for “TV”, “anti-mouse-PD-1” for “anti-mouse-PD-L1”

[3] = Day 1 (day of grouping, first day of administration)

Chain of VEGFR2 (P35968 20-1356, species assumed): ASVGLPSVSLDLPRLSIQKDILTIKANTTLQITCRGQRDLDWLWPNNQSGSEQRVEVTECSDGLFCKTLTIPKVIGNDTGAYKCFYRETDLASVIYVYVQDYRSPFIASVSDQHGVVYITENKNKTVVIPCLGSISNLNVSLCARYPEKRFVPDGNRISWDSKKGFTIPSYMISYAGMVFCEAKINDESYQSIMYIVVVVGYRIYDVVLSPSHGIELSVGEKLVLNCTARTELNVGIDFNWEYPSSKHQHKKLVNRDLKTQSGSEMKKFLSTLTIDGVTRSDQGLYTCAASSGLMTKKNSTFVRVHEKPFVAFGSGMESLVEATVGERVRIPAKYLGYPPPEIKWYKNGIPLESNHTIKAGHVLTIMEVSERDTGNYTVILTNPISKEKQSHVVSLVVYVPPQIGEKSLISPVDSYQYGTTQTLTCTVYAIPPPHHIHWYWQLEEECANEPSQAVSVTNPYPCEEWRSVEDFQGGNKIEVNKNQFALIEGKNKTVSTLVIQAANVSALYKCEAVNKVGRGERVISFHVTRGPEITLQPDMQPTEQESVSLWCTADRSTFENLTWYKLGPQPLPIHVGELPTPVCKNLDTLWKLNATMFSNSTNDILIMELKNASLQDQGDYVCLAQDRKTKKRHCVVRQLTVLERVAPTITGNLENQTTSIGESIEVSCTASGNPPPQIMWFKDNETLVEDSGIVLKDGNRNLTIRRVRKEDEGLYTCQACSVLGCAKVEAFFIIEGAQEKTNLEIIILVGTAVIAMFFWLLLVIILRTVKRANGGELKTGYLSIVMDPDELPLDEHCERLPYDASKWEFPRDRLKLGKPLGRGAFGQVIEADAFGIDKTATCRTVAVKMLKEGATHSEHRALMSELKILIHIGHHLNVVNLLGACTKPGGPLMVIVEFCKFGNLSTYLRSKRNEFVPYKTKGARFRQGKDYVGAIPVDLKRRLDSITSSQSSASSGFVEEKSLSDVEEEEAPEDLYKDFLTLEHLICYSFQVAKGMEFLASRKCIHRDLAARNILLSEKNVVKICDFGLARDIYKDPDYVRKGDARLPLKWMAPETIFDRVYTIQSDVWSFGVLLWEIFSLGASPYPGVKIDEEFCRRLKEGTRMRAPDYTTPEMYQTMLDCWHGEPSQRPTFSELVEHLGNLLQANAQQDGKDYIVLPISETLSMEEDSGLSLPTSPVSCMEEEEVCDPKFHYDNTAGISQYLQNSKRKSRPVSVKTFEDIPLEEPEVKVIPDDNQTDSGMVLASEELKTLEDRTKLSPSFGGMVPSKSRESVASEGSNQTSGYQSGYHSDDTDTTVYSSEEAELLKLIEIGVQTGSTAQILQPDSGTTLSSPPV

**Q.** What does the source list for `COc1cc2nccc(Oc3ccc(NC(=O)NC4CC4)c(Cl)c3)c2cc1C(N)=O` [Lenvatinib, 4-[3-chloro-4-(cyclopropylaminocarbonyl)aminophenoxy]-7-methoxy-6-quinolinecarboxamide]?
**A.** inhibition of kinase activity (VEGFR2): rapid and potent inhibition of kinase activity; Tumor Volume TV [1, 3]: 154 mm^3; Tumor Volume TV ([1]; Day 4): 472 mm^3; Tumor Volume TV ([1]; Day 8): 1172 mm^3; Tumor Volume TV ([1]; Day 11): 1555 mm^3; Tumor Volume TV [2, 3]: 100 mm^3; Tumor Volume TV ([2]; Day 4): 243 mm^3; Tumor Volume TV ([2]; Day 8): 394 mm^3; Tumor Volume TV ([2]; Day 10): 553 mm^3; Tumor Volume TV ([2]; Day 13): 837 mm^3; Tumor Volume TV ([2]; Day 15 (day after final administration)): 1143 mm^3
